This is an account of results in patent publication US12661353B2, “SPT5 inhibitors and uses thereof” (Yeda Research and Development Co. Ltd., priority 2020, dated 2026).

Experiment [1] has as its target T1, Spt5-Pol II interaction (NGN and KOW 1&2 of Spt5, coiled-coil domain of Rpb1) (Homo sapiens, UniProt P24928).
T1 construct: the region spanning NGN and KOW 1&2 of Spt5 and the coiled-coil (CC) domain of Rpb1; the coiled-coil (CC) domain of Rpb1, the large subunit of Pol II, were fused to N-RL and C-RL, respectively; made in house; host or cells: E. coli (pRSFDuet double expression plasmid); bacterial cell lysate used unpurified
Nature of the experiment: Split-Renilla luciferase (RL) complementation assay of Spt5-Pol II interaction. The format is binding. From the text: Plasmid construction—The mammalian expression plasmids RSV-AC/AN Renilla luciferase (pRL-AC/AN), encoding the N-terminal amino acid residues 1-229 or the C-terminus 230-311 of the Renilla luciferase (RL) were previously described in Ashkenazi et al., 2016; and Ashkenazi et al., 2017. The split-Renilla luciferase fusion plasmids were constructed by two-step PCR using the pRL-AC or pRL-AN as backbones and plasmids encoding the region spanning NGN and KOW 1&2 of human Spt5 (SEQ ID NOs: 1-3) or the coiled-coil (CC) domain of human Rpb1 (SEQ ID NOs: 4-6), respectively, as insert sources. For bacterial expression of the split-RL fusion proteins the double expression plasmid pRSFDuet was used. All constructs were verified by sequencing.
High-throughput drug screening (HTS)—About 100,000 compounds [from MEGxp library: Pure natural compounds from plants (see Table 1 hereinbelow) were screened for their effect on Spt5-Pol II interaction (a schematic representation of the assay is shown in FIG. 1B). […] Compounds that diminished the luminescence activity by >30% were subjected for an additional screen with a bacterial lysate expressing recombinant full-length RL (diluted 1: 500 in phosphate buffer) that served as a control for false-positive compounds that inhibit the RL enzymatic activity itself (Ashkenazi et al., 2017). […]

Another experiment has as its system A20 gene. Nature of the experiment: ChIP of Pol II and Spt5 occupancy of the A20 gene. The format is cell-based, human. The following applies: for TNFα induction of Pol II and Spt5 levels at the A20 loci: TNFα+ 30 minutes; for Spt5 and Pol II occupancy at 3 loci of the A20 gene: basal conditions (TNFα-). As to the method: Chromatin immunoprecipitation (ChIP)—HeLa cells were treated with DMSO (vehicle control) or the indicated compound (50 μM; 60 minutes), followed by TNF-α induction (30 minutes) in 100-mm plates. Following, the cells were cross-linked with 1% formaldehyde for 10 minutes at room temperature, and fixation was terminated by adding 1/20 volume of 2.5 M glycine.
Chromatin extraction and immunoprecipitation were carried out as previously described in Diamant et al., 2012. For immunoprecipitation (IP), 3 μg of anti-RNA polymerase II (ab817, Abcam) anti-Spt5 [previously described in Amir-Zilberstein et al., 2007] or control IgG (SC-2025, Santa Cruz Biotechnology) was added to 1 ml of the soluble chromatin DNA. IP and input samples were analyzed by qPCR as described above.
To further examine the impact of the identified SPIs on chromatin occupancy of Spt5 and Pol II, chromatin immunoprecipitation (ChIP) in the presence of DMSO, SPI-21 or SP-18 followed by 30 minutes TNFα treatment was performed. […] This finding is consistent with the increase in transcription under basal conditions exerted by SPI-21 but not by SPI-18 (FIG. 2A). Upon TNFα induction the levels of Pol II and Spt5 were dramatically elevated and this induction was diminished by both SPI-21 and SPI-18 at all the analyzed loci (FIG. 3G, TNFα+). This finding is consistent with the decrease in transcription under TNFα-induced conditions of both SPI-21 and SIP-18 (FIG. 3A).

In the next experiment the test system is HeLa cells. Nature of the experiment: Cells viability assay (CellTiter-Glo), HeLa. The format is cell-based, human. The following applies: increasing concentrations, 48 h. Here is the method:
Cells viability assay—_HeLa cells were plated in an opaque-walled 96 well plate (50,000 cells per well) and treated with increasing concentrations of the tested SPI compounds (e.g., SPI-21 or SPI-18) for 48 hours. After equilibrating the plate and its contents at room temperature for 30 minutes, […] (1:1) of CellTiter-Glo® Reagent (G7571, Promega) was added to each well and shook for 2 minutes to induce cell lysis. Following 10 minutes incubation at room temperature, the luminescent signal was detected using the Cytation 5 instrument.
Spt5 was reported to be essential for cell growth and survival in mammalian cells (Komori et al., 2009).
(ATP-based viability assays read luminescence as a measure of living cells.)

T1 sequence (P24928 8-370 limits assumed): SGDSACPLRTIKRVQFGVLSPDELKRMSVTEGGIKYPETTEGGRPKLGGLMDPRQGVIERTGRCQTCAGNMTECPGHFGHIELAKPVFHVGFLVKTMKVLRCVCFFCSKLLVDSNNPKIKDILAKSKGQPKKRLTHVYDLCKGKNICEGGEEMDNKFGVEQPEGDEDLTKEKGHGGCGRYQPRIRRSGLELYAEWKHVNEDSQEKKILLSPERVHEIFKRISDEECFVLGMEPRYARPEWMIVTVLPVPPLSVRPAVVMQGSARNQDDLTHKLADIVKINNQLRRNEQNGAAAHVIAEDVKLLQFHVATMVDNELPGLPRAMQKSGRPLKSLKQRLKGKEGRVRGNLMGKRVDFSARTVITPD

For `Nc1ccccc1SC(CC(=O)c1cccs1)c1cccs1` (centres unmarked) [SPI-18], 33 µM corresponded to half-maximal inhibition in experiment [1] (IC50). Moreover, in the experiment with A20 gene, the “TNFα induction of Pol II and Spt5 levels at the A20 loci” value was “diminished”; the “Spt5 and Pol II occupancy at 3 loci of the A20 gene” value is listed as “unchanged”. Further, the cellular viability result in the experiment on HeLa cells is on record as “dramatically diminish cellular viability in a dose-dependent manner”.

Consider `COc1ccc(C=CC(=O)c2cc(O)ccc2O)cc1` [SPI-21], for which the concentration for half-maximal inhibition (IC50) (commonly the point on the concentration scale where inhibition reaches its midpoint) in experiment [1] came out at 25 µM. Further, in the experiment on A20 gene, the “TNFα induction of Pol II and Spt5 levels at the A20 loci” value was “diminished”; the “Spt5 and Pol II occupancy at 3 loci of the A20 gene” value is “moderate but significant enhancement”. The cellular viability result in the experiment on HeLa cells was “dramatically diminish cellular viability in a dose-dependent manner”.
